Several values for one entry are separate records, joined by “and”; a condition that tells them apart may be missing. Identical values can stand only once.
System: HepaRG cells
Assay: RT-qPCR mRNA expression in differentiated HepaRG cells
[1] = single agent 5: MI-883 5, Rif (5 μM) alone

From the text: HepaRG cells from Biopredic (Rennes, France) were cultivated and differentiated on the 12-well plates. […] Several batches of HepaRG KO CAR (CAR Knockout HepaRG™ Cells, MTOX1012-1VL, RRID:CVCL_B6AA) and PXR Knockout HepaRG™ Cells, MTOX1011-1VL, RRID:CVCL_B6AS) cells have been obtained from Sigma-Aldrich/Merck (Darmstadt, Germany) and cultivated according to the provider’s protocols. […] Experiments with HepaRG KO PXR and HepaRG KO CAR cells have been performed in duplicates at least in two independent experiments.
RT-qPCR was used to examine gene expression in 2D and 3D PHH, HepaRG cells, or in mouse liver or intestine (ileum) samples as we have described before[60]–[62].
All qRT-qPCR experiments including Trizol reagent (Life Technologies) total RNA isolation, reverse-transcription using a random hexaprimer, and the MMLV Reverse Transcriptase Kit (ThermoFisher Scientific) we have described before^19. qPCR was performed using TaqMan Fast Advanced Master Mix with TaqMan probes (ThermoFisher Scientific). […] The delta-delta method was used for gene expression quantification normalized to at least two reference genes. Three technical replicates were used for each reaction considering the MIQE guidelines. Data are presented as fold induction to vehicle-treated cells/animals.

**Q.** `NC(=O)c1cc(Cn2cc(-c3c(-c4ccc(Cl)cc4)nc4cc(F)ccn34)nn2)ccc1Cl` [MI-883, 2-chloro-5-((4-(2-(4-chlorophenyl)-7-fluoroimidazo[1,2-a]pyridin-3-yl)-1H-1,2,3-triazol-1-yl)methyl)benzamide] was tested. Which “SREBF2 mRNA fold (Fig. 3f,g sheet), replicates” value (from here on “SREBF2 mRNA fold”) (MI-883 1) did it give?
**A.** Its value is 0.6439 and 0.7635 and 0.7748 and 1.065 and 0.7449 and 1.037.

**Q.** What about the “mRNA fold, Fig. 3b sheet, first block (CYP3A4), replicates” value (from here on “mRNA fold, Fig. 3b sheet, first block”) (MI-883 1 (µM), 24 h) of the same compound?
**A.** The value was 0.8362 and 0.801 and 0.9683 and 1.172 and 0.7446.

**Q.** What about the “mRNA fold, Fig. 3b sheet, second block (gene not given; CYP2B6), replicates” value (MI-883 1 (µM), 24 h) of the same compound?
**A.** Its value is 2.928 and 2.816 and 2.017 and 3.044 and 1.065.

**Q.** What about the “mRNA fold, Fig. 3b sheet, first block” value (MI-883 1 + Rif (5 μM)) of the same compound?
**A.** Its value is 1.353 and 3.215 and 5.541.

**Q.** What about the “mRNA fold, Fig. 3b sheet, second block (CYP2B6), replicates” value (from here on “mRNA fold … (CYP2B6), replicates”) (MI-883 1 + Rif (5 μM)) of the same compound?
**A.** Its value is 2.0016 and 2.546 and 5.3.

**Q.** And the “CYP7A1 mRNA fold (Fig. 3f,g sheet), replicates” value (shortened to “CYP7A1 mRNA fold”) (MI-883 5)?
**A.** Its value is 0.5588 and 0.4759 and 0.4175.

**Q.** And the “INSIG1 mRNA fold (Fig. 3f,g sheet), replicates” value (from here on “INSIG1 mRNA fold”) (MI-883 5)?
**A.** Its value is 1.268 and 1.368 and 1.1831.

**Q.** What about the “LDLR mRNA fold (Fig. 3f,g sheet), replicates” value (“LDLR mRNA fold” for short) (MI-883 5) of the same compound?
**A.** Its value is 1.377 and 1.27 and 1.084.

**Q.** What about the “SQLE mRNA fold (Fig. 3f,g sheet), replicates” value (shortened to “SQLE mRNA fold”) (MI-883 5) of the same compound?
**A.** The value was 1.181 (2×) and 1.026.

**Q.** And the “SREBF1 mRNA fold (Fig. 3f,g sheet), replicates” value (“SREBF1 mRNA fold” below) (MI-883 5)?
**A.** Its value is 0.6652 and 0.6777 and 0.7568.

**Q.** And the “SREBF2 mRNA fold” value (MI-883 5)?
**A.** Its value is 0.5404 and 1.004 and 0.7053.

**Q.** And the “mRNA fold, Fig. 3b sheet, first block” value (MI-883 5 + Rif (5 μM))?
**A.** Its value is 1.354 and 1.7483 and 1.162.

**Q.** And the “mRNA fold … (CYP2B6), replicates” value (MI-883 5 + Rif (5 μM))?
**A.** Its value is 2.182 and 1.817.

**Q.** And the “CYP7A1 mRNA fold” value (MI-883 10)?
**A.** Its value is 0.4275 and 0.3155 and 0.5022 and 0.4393.

**Q.** What about the “INSIG1 mRNA fold” value (MI-883 10) of the same compound?
**A.** Its value is 1.223 and 1.042 and 1.225 and 1.172.

**Q.** And the “LDLR mRNA fold” value (MI-883 10)?
**A.** Its value is 1.481 and 1.183.

**Q.** What about the “SQLE mRNA fold” value (MI-883 10) of the same compound?
**A.** The value was 1.043 and 1.272 and 0.888 and 1.111 and 1.1255.

**Q.** And the “SREBF1 mRNA fold” value (MI-883 10)?
**A.** Its value is 0.5595 and 0.8022 (2×) and 0.6597.

**Q.** What about the “SREBF2 mRNA fold” value (MI-883 10) of the same compound?
**A.** Its value is 0.6518 and 0.837 and 1.166 and 1.224 and 0.9179 and 0.9421.

**Q.** What about the “mRNA fold, Fig. 3b sheet, first block” value (MI-883 10) of the same compound?
**A.** Its value is 0.3642 and 0.6511 and 0.7047 and 0.8281 and 0.7972 and 0.5808.

**Q.** What about the “mRNA fold … (CYP2B6), replicates” value (MI-883 10) of the same compound?
**A.** The value was 2.037 and 2.07 and 1.475 and 2.671 and 1.239 and 0.7631.

**Q.** And the “mRNA fold, Fig. 3b sheet, first block” value (MI-883 10 + Rif (5 μM))?
**A.** Its value is 0.875 and 1.224 and 1.6089 and 0.7778.

**Q.** What about the “mRNA fold … (CYP2B6), replicates” value (MI-883 10 + Rif (5 μM)) of the same compound?
**A.** Its value is 1.519 and 3.467 and 2.287 and 1.0661.

**Q.** And the “CYP7A1 mRNA fold” value (MI-883 20)?
**A.** Its value is 0.3598 and 0.7856.

**Q.** What about the “INSIG1 mRNA fold” value (MI-883 20) of the same compound?
**A.** Its value is 1.146 and 1.273.

**Q.** What about the “LDLR mRNA fold” value (MI-883 20) of the same compound?
**A.** Its value is 1.442 and 1.216 and 1.519.

**Q.** And the “SQLE mRNA fold” value (MI-883 20)?
**A.** The value was 1.646 and 1.048.

**Q.** And the “SREBF1 mRNA fold” value (MI-883 20)?
**A.** The value was 0.7299 and 0.7553.

**Q.** And the “SREBF2 mRNA fold” value (MI-883 20)?
**A.** The value was 1.072 and 1.4 and 1.1431.

**Q.** What about the “mRNA fold, Fig. 3b sheet, first block” value (MI-883 20) of the same compound?
**A.** The value was 0.6466 and 0.6905 and 0.8398 and 0.439.

**Q.** What about the “mRNA fold … (CYP2B6), replicates” value (MI-883 20) of the same compound?
**A.** Its value is 1.395 and 1.4687 and 2.208 and 1.5457.

**Q.** And the “mRNA fold, Fig. 3b sheet, first block” value (MI-883 20 + Rif (5 μM))?
**A.** Its value is 0.5897 and 1.016.

**Q.** What about the “mRNA fold … (CYP2B6), replicates” value (MI-883 20 + Rif (5 μM)) of the same compound?
**A.** Its value is 0.9269 and 2.43 and 1.46.

**Q.** And the “CYP7A1 mRNA in HepaRG cells” value (MI-883: in the absence and presence of rifampicin)?
**A.** The value was “significant downregulation”.

**Q.** What about the “rifampicin induction of SQLE mRNA in HepaRG cells” value (MI-883 at 1 μM, SPA70) of the same compound?
**A.** The value was “abrogated”.

**Q.** What about the “CYP2B6 mRNA, RT-qPCR, HepaRG (Fig. 1f), replicates” value (Phenobarbital 500 μM, CITCO 1 μM, MI 883 1 μM, ctrl = 1) of the same compound?
**A.** The value was 4.75 and 4.15 and 4.1.

**Q.** And the “ABCC4 and UGT1A1 genes in HepaRG cells” value (Supplementary Fig. 10)?
**A.** The value was “upregulated”.

**Q.** What about the “mRNA fold, Fig. 3b sheet, first block” value [1] of the same compound?
**A.** Its value is 0.6927 and 0.6641 and 0.6779.

**Q.** What about the “mRNA fold … (CYP2B6), replicates” value [1] of the same compound?
**A.** The value was 3.953 and 2.541 and 3.216.
